Results: patent US20050032738A1, “Method of treating cancer by conjunctive therapy with 2'-haloemethylidene derivatives and a S-phase or M-phase specific antineoplastic agent” (Merrell Pharmaceuticals Inc., priority 1992, published 2005)
In brackets after ≈: the same amount, converted by molar mass.

Experiments:
[1] = system: HeLa cells; test: Antiproliferative activity against HeLa cells (MTT cell viability); conditions: for IC50: Homo sapiens, HeLa, 72 h, read-out: Drug Alone IC50
[2] = system: Lewis lung carcinoma; test: Antitumor activity against Lewis lung carcinoma in mice (tumor weight, pulmonary metastatic foci); format: in vivo; conditions: i.p. once daily, 101,731 5 mg/kg day 1-7, Ara-C 10 mg/kg day 7-14; for % Inhibition (tumor weight) / Tumor Weight (g) (Mean ± S.D.): 3LL cells s.c. day 0; for % Inhibition (tumor weight) / % Inhibition (No. of foci) / No. of Foci (Mean ± S.D.): day 15; for Tumor Weight (g) (Mean ± S.D.): tumors weighed day 15; for % Inhibition (No. of foci) / No. of Foci (Mean ± S.D.): pulmonary metastatic foci
Description: Inject 3 LL cells (1×10^5/mouse) s.c. on day 0. Administer compounds i.p., once daily as indicated. Sacrifice animals on day 15, dissect the tumors and weigh. Also count pulmonary metastatic foci.

[3] = system: B16 melanoma; test: Antitumor activity against B16 melanoma in mice; format: in vivo; conditions: B16 melanoma s.c. day 0, i.p. once daily, 101,731 5 mg/kg day 1-7, Ara-C 10 mg/kg day 7-14; for % Inhibition (tumor weight): day 15; for Tumor Weight (g) (Mean ± S.D.): tumors weighed day 15
Description: Inject B16 melanoma cells (1×10^5 cells/mouse) subcutaneously on day 0. Administer compounds i.p. once daily as indicated. Sacrifice the animals on day 15, dissect the tumors and weigh.

| IC50 [1] | Drug + 101,731 IC50 ([1]; HeLa cells pretreated with MDL 101,731 15 ng/mL for 24 hours, washed, then drug for 72 hours, MTT) | Drug Alone IC50 ([1]; HeLa cells, 72 hours exposure to drug, MTT) | Compound | Effect on the growth of the tumor cells ([1]; MDL 101,731 alone, 15 ng/mL for 24 hours, HeLa cells) | % Inhibition (tumor weight) [2] | Tumor Weight (g) (Mean ± S.D.) [2] | % Inhibition (No. of foci) [2] | No. of Foci (Mean ± S.D.) [2] | % Inhibition (tumor weight) [3] | Tumor Weight (g) (Mean ± S.D.) [3] |
| --- | --- | --- | --- | --- | --- | --- | --- | --- | --- | --- |
|  |  |  | Nc1ccn([C@@H]2O[C@H](CO)[C@@H](O)/C2=C\F)c(=O)n1 [101,731, (E)-2′-deoxy-2′-fluoromethylidenecytidine] | did not show any effect | 20% | 2.8 ± 0.6 g | 0% | 15.5 ± 6 | 10% | 2.4 ± 0.9 g |
| 41.1 µg/mL (≈ 316 µM) |  |  | O=c1[nH]cc(F)c(=O)[nH]1 [5-Fluorouracil (5Fu), 5-Fluorouracil] |  |  |  |  |  |  |  |
| 86.7 µg/mL (≈ 107 µM) |  |  | CC[C@]1(O)C[C@@H]2CN(CCc3c([nH]c4ccccc34)[C@@](C(=O)OC)(c3cc4c(cc3OC)N(C)[C@H]3[C@@](O)(C(=O)OC)[C@H](OC(C)=O)[C@]5(CC)C=CCN6CC[C@]43[C@@H]65)C2)C1 [Vinblastine (VLB), Vinblastine] |  |  |  |  |  |  |  |
|  | 3.2 µg/mL | 13.7 µg/mL | Nc1ccn([C@@H]2O[C@H](CO)[C@@H](O)[C@@H]2O)c(=O)n1 [Ara-C, Cytosine Arabinoside] |  | 0% | 3.83 ± 0.8 g | 0% | 14.6 ± 5 | 0% | 3.6 ± 0.8 g |
